Test results from patent publication US20250304545A1, “WATER-SOLUBLE HETEROCYCLYL POLYMETHINE CHROMOPHORES” (The Regents of the University of California, priority 2022, published 2025).
Each block holds one molecule with its values, some of them ahead of it.

Legend:
[1] = Photophysical properties of exemplary compounds in DCM solution; assay type: physicochemical; conditions: for λmax (first value of the cell): first of two wavelengths; for λmax (second value of the cell): second of two wavelengths
[2] = reference value; cited from earlier work
[3] = in vivo; cited from earlier work
[4] = Systemic vasculature SWIR imaging with SulfoChrom7, compared with ICG; assay type: in vivo, mice; conditions: for distribution within 30 min: co-injection of SulfoChrom7 and ICG, 10 nmol each i.v.
Description: (§1) Animal experiments were conducted in conformity with guidelines from the University of California, Los Angeles with protocols approved by the Animal Research Committee (protocol number ARC-2018-047). Non-invasive whole mouse imaging was performed on athymic nude female mice (5-15 weeks old), purchased from Charles River Laboratories. Mice were anesthetized with inhaled 2-4% isoflurane. Tail vein injections were performed with a catheter assembled from a 29-gauge needle connected through plastic tubing to a syringe prefilled with isotonic saline solution. The bevel of the needle was then inserted into the tail vein and secured using tissue adhesive. The plastic tubing was then connected to a syringe (30-gauge needle) prefilled with the compound of interest. All solutions were filtered through a 0.22 μm syringe filter prior to i.v. injection.
(§2) Imaging instrument was installed according to published procedure, using an Allied Vision Goldeye G-032 Cool TEC2 camera with illumination from LU0975DLU350-S30AN03 (35 W, 975 nm laser) and LU0785D250-U70AN (25 W, 785 nm laser) Lumics laser units to record images at 14-bit depth. Illumination was adjusted to 100 mW/cm^2 for 975 nm and 50 mW/cm^2 for 785 mm. Excitation was provided at 975 nm for Sulfo-, Ammon-, Zwit- and PhosphoChrom7, and at 785 nm for ICG. Fluorescence images were recorded with an 1100 nm long-pass filter unless otherwise noted. Dual-channel imaging (SulfoChrom7/ICG, or fluorescent imaging/bright field imaging) was performed with pulsed excitation that matches the detection window of the camera, or persistent ambient fluorescent lighting for bright field images to be subtracted as background in the fluorescence channel.
Images were processed using the Fiji distribution of ImageJ. All images were background subtracted to correct for non-linearities in the detector and/or excitation. […] Videos were saved as raw avi and cropped, frame-rate adjusted and compressed with FFmpeg. For dual-channel imaging, emission of the SulfoChrom7 and AmmonChrom7 in 785 nm channel was estimated to be 9.0% intensity of their 975 nm image as derived from the capillary experiment, and subtracted from the 785 nm channel.

SK-OV-3 tumors = experiment: Fluorescence tracking of growth of SK-OV-3 tumor xenografts; assay type: in vivo, mice; conditions: 39 days after xenograft, 4 h after i.v. OTL-38
Description: A375 or SK-OV-3 cells were grown to confluency and incubated with full media supplemented with 50 μM of AmmonChrom7 for 12 h. Cells were then incubated with full media for 6 h, followed by digestion with trypsin-EDTA. The cell pellet was further washed with PBS (×3). For A375 cells, stained or unstained cells were suspended in 1:1 PBS and Matrigel; 100 μL of cell suspension (3.3 million cells) were injected to each site. Tumor 2D-projected sizes A were monitored by caliper measurement of long diameter a and short diameter b of the tumors and estimated by the following equation:
For SK-OV-3 cells, cells were suspended in 1:1 PBS and Matrigel; 100 μL of cell suspension (2.5 million cells) was injected to each site. […]
as §2, with “Illumination was adjusted to 100 mW/cm^2 for 975 nm and 50 mW/cm^2 for 785 mm. Excitation was provided at 975 nm for Sulfo-, Ammon-, Zwit- and PhosphoChrom7, and at 785 nm for ICG.” left out

[5] = Bone imaging in mice with PhosphoChrom7; assay type: in vivo
Description: as §1, §2
Images were processed using the Fiji distribution of ImageJ. All images were background subtracted to correct for non-linearities in the detector and/or excitation. […] Videos were saved as raw avi and cropped, frame-rate adjusted and compressed with FFmpeg. […]

[6] = Hydroxyapatite binding assay; conditions: 50 μM dye in bovine serum, sequential washes
Description: Hydroxyapatite powder was purchased from Acros Organics. To a suspension of 10 mg of hydroxyapatite in 100 μL of bovine serum was added 50 μM PhosphoChrom7 and the mixture was placed on a revolver for 30 min for initial binding, followed by centrifugation to remove supernatant. For washing, the pellet was resuspended in 100 μL of bovine serum by vortexing and placed on a revolver for 30 min followed by centrifugation to remove supernatant. The pellet was finally resuspended in 100 μL of bovine serum for imaging under the SWIR camera. For quantification, each centrifuge tube containing the suspension was recorded at the center of the illumination/viewing field to calculate mean fluorescence intensity at the bottom area of the tube.

[7] = Aggregation / monomeric dispersion by absorption spectra in water, MeOH/H2O and serum; assay type: physicochemical; conditions: for aggregation state: in water
From the text: (§3) Absorption spectra were collected on a JASCO V-770 UV-visible/NIR spectrophotometer after blanking with the appropriate solvent. Photoluminescence spectra were obtained on a Horiba Instruments PTI QuantaMaster Series fluorometer. Fetal bovine serum (FBS) or bovine serum were purchased from Gibco. Quartz cuvettes (10 mm×10 mm) were used for absorption and photoluminescence measurements unless otherwise noted. All spectra were obtained at ambient temperature. Fluorescence quantum yield was measured with 830 nm excitation using Flav7 as a reference (ΦF=0.61%).

HEK293 cells [8] = experiment: MTT toxicity assay; assay type: cell-based; conditions: low concentrations
Description: HEK293 cells were split into three cultures as replicates. For each replicate, HEK293 cells were passed onto flat-bottomed 96-well plate to 40-50% confluency and left 6 h for adhesion. Different concentrations of compounds were added to the medium (1:40 dilution from aqueous stock solution) in quadruplicate and incubated for 18 h. After incubation, cells were treated with 100 μL of full media containing 0.5 mg/mL MTT for 2 h, followed by addition of 100 μL of aqueous solution containing 10% SDS and 1:1000 HCl. After 3-4 h incubation, cell viability was determined by measuring the absorbance at 490 nm using a plate reader.

[9] = Photophysical characterization of Chrom7 dyes (absorption, emission, quantum yield); assay type: physicochemical
From the text: as §3

Stability assay in FBS = assay type: in vitro ADME; conditions: over 2 days at 37° C. in FBS, 1 μM dye
Description: Dyes were diluted to 1 μM in 1 mL of FBS containing 0.02% w/v NaN3 and placed in disposable cuvettes. The cuvettes were sealed with parafilm and placed in 37° C. incubator until given time points. Absorption spectra were taken using the maximum absorption to represent the dye concentration. Each condition was performed in triplicate.

HEK293 cells [10] = experiment: Uptake and retention of dyes in cells (absorbance of cell lysates); assay type: cell-based; conditions: 50 μM dye
Description: HEK293, SK-OV-3 or A375 cells were split into three cultures as replicates. For each replicate, cells were passed onto 12-well or 24-well plates and grown until ca. 80% confluency. Each well was incubated with 50 μM of AmmonChrom7 for 6 h, and the cells were washed with PBS and incubated in MEM medium supplemented with 1% FBS. At given time points, the cell media were removed and cells were lysed with lysis buffer (150 μL, containing 1% Triton X-100, 0.1% w/v SDS and 0.1% w/v sodium deoxycholate) and diluted with bovine serum (300 μL). The cell lysate was collected and frozen at −20° C. until analysis. To quantify dye content, maximum absorption was used to represent the dye concentration. Scattering was estimated and subtracted with absorption at 1050-1100 nm, using the following equation for fitting: […]

[11] = Brightness comparison by SWIR imaging of dyes in FBS in capillaries; assay type: physicochemical
Description: as §2

[12] = Biodistribution of water soluble SWIR fluorophores after i.v. injection; assay type: in vivo, mice; conditions: 20 nmol into tail vein
Description: as §1, with “The plastic tubing was then connected to a syringe (30-gauge needle) prefilled with the compound of interest. All solutions were filtered through a 0.22 μm syringe filter prior to i.v. injection.” left out
as §2, with “Illumination was adjusted to 100 mW/cm^2 for 975 nm and 50 mW/cm^2 for 785 mm. Excitation was provided at 975 nm for Sulfo-, Ammon-, Zwit- and PhosphoChrom7, and at 785 nm for ICG.” left out, “channel. […]” for “channel.”

- εmax ([9]; in MeOH): 14 ± 1 10^4 M^−1cm^−1
- λmax ([9]; in MeOH): 928 nm
Compound: C#CCN(CC#C)c1ccc2c(c1)OC(C(C)(C)C)=C/C2=C\C=C1/CCCC(/C=C/c2cc(C(C)(C)C)[o+]c3cc(N(CC#C)CC#C)ccc23)=C1c1ccccc1C [Propargyl-Chrom7]

- aggregation state [7]: discernible monomer absorption
- fraction of dye left (Stability assay in FBS): around ½
- emission in 785 nm channel as intensity of the 975 nm image ([11]; derived from the capillary experiment): 9.0%
- SWIR brightness compared with ICG / among the dyes ([11]; in FBS, 975 nm excitation (ICG 785 nm)): brightest of the fluorophores
- εmax ([9]; in FBS): 9.5 10^4 M^−1cm^−1
- λmax ([9]; in FBS): 963 nm
- φF ([9]; in FBS): 0.0056 ± 0.0003
- εmax ([9]; in MeOH): 16.5 ± 0.2 10^4 M^−1cm^−1
- λmax ([9]; in MeOH): 938 nm
- φF ([9]; in MeOH): 0.0106 ± 0.0002
Compound: Cc1ccccc1C1=C(C=Cc2cc(C(C)(C)C)[o+]c3cc(N(Cc4cn(CCCS(=O)(=O)[O-])nn4)Cc4cn(CCCS(=O)(=O)[O-])nn4)ccc23)CCCC1=CC=C1C=C(C(C)(C)C)Oc2cc(N(Cc3cn(CCCS(=O)(=O)[O-])nn3)Cc3cn(CCCS(=O)(=O)[O-])nn3)ccc21.[Na+].[Na+].[Na+] [SulfoChrom7]
- cellular uptake (absorbance of cell lysates) (HEK293 cells [10]): minimal
- distribution after 3 h [12]: diffuse signal through the mouse body, but still with substantial liver accumulation
- brightness ratio over ICG in veins, maximum over time ([4]; co-injection 10 nmol each, 1300 nm LP filter): 7-8 fold
- distribution within 30 min [4]: still reflected the superficial vasculature map while also displaying liver accumulation
- amount of dye that enables video-rate imaging of liver and vasculature ([4]; tail vein, 33 fps, 1100 nm LP filter): 0.05 nmol

- aggregation state [7]: primarily aggregated
- fraction of dye left (Stability assay in FBS): 1/10
- quantum yield ([9]; in FBS): 0.32%
- εmax ([9]; in FBS): 11.5 10^4 M^−1cm^−1
- λmax ([9]; in FBS): 960 nm
- φF ([9]; in FBS): 0.0032 ± 0.0003
- εmax ([9]; in MeOH): 16.4 ± 0.4 10^4 M^−1cm^−1
- λmax ([9]; in MeOH): 940 nm
- φF ([9]; in MeOH): 0.0101 ± 0.0004
Compound: Cc1ccccc1C1=C(C=Cc2cc(C(C)(C)C)[o+]c3cc(N(Cc4cn(CCC[N+](C)(C)CCCS(=O)(=O)[O-])nn4)Cc4cn(CCC[N+](C)(C)CCCS(=O)(=O)[O-])nn4)ccc23)CCCC1=CC=C1C=C(C(C)(C)C)Oc2cc(N(Cc3cn(CCC[N+](C)(C)CCCS(=O)(=O)[O-])nn3)Cc3cn(CCC[N+](C)(C)CCCS(=O)(=O)[O-])nn3)ccc21.[Cl-] [ZwitChrom7]
- cellular uptake (absorbance of cell lysates) (HEK293 cells [10]): minimal
- distribution after 3 h [12]: diffuse signal through the mouse body, but still with substantial liver accumulation

Further lines, the molecule ahead of its results:

Compound: Cc1cc(C)cc(C2=C(/C=C/C3=CC(c4ccccc4)=[SH]c4cc(N(C)C)ccc43)CCC/C2=C\C=C2/C=C(c3ccccc3)Sc3cc(N(C)C)ccc32)c1 [DiMePh SFlav7]
- ϕF [1]: 0.11 ± 0.01%
- λmax (first value of the cell) [1]: 1079 nm
- λmax (second value of the cell) [1]: 1107 nm

Compound: CN(C)c1ccc2c(c1)SC(c1ccccc1)=C/C2=C\C=C1/CCCC(/C=C/c2cc(-c3ccccc3)[s+]c3cc(N(C)C)ccc23)=C1c1cc(C(C)(C)C)cc(C(C)(C)C)c1 [DitBuPh SFlav7]
- ϕF [1]: 0.11 ± 0.02%
- λmax (first value of the cell) [1]: 1079 nm
- λmax (second value of the cell) [1]: 1107 nm

Compound: CN(C)c1ccc2c(c1)OC(c1ccccc1)=C/C2=C\C=C1/CCCC(/C=C/c2cc(-c3ccccc3)[o+]c3cc(N(C)C)ccc23)=C1Cl [Flav7]
- ΦF of the reference for fluorescence quantum yield [2]: 0.61%

Compound: CC1(C)C(/C=C/C=C/C=C/C=C2\N(CCCCS(=O)(=O)O)c3ccc4ccccc4c3C2(C)C)=[N+](CCCCS(=O)(=O)[O-])c2ccc3ccccc3c21 [ICG, indocyanine green, reference compound]
- time of hepatobiliary clearance [3]: ≤ 6 h
- distribution within 30 min [4]: most ICG accumulated in the liver with secretion into the intestine, leaving negligible signal in the mouse body

Compound: CC1(C)C(/C=C/C2=C(Oc3ccc(C[C@H](NC(=O)c4ccc(NCc5cnc6nc(N)[nH]c(=O)c6n5)cc4)C(=O)[O-])cc3)C(=C/C=C3\N(CCCCS(=O)(=O)[O-])c4ccc(S(=O)(=O)[O-])cc4C3(C)C)/CCC2)=[N+](CCCCS(=O)(=O)[O-])c2ccc(S(=O)(=O)[O-])cc21.[H+].[H+].[H+].[H+] [OTL-38]
- specificity of tumor staining ex vivo (SK-OV-3 tumors): much non-specific accumulation

Compound: Cc1ccccc1C1=C(C=Cc2cc(C(C)(C)C)[o+]c3cc(N(Cc4cn(CCCP(=O)(O)O)nn4)Cc4cn(CCCP(=O)(O)O)nn4)ccc23)CCCC1=CC=C1C=C(C(C)(C)C)Oc2cc(N(Cc3cn(CCCP(=O)(O)O)nn3)Cc3cn(CCCP(=O)(O)O)nn3)ccc21 [PhosphoChrom7]
- organ distribution on dissection ([5]; 54 h after i.v. injection): the liver is the major target of the dye
- time at which bone structures begin to feature ([5]; after i.v. injection): 8 h
- clearance ([5]; compared to previous hydrophilic dyes): slightly faster clearance
- binding towards hydroxyapatite [6]: strong binding affinity
- aggregation peak ([7]; in FBS): 760 nm
- solubility ([7]; in FBS): lower than the Sulfo-, Ammon-, or ZwitChrom7
- toxicity (HEK293 cells [8]): mild
